This is an account of results in patent USRE42013E1, “Macrocyclic modulators of the ghrelin receptor” (Tranzyme Pharma Inc., priority 2003, dated 2010).

For this assay, the system named is morphine-treated rats. Briefly: Gastric emptying and gastrointestinal transit in model of opioid-delayed gastric emptying. Type of assay: in vivo, rat (Sprague-Dawley). The note with it: 3 mg/kg s.c. From the text:
7. The Effect of Compounds of the Invention on Gastric Emptying and Gastrointestinal Transit in a Model of Opioid-Delayed Gastric Emptying
Opioid analgesics, such as morphine, are well known to delay gastrointestinal transit which is an important side-effect for this class of drugs. The clinical term for this syndrome is opioid bowel dysfunction (OBD). Importantly, patients recovering from abdominal surgery experience post-operative ileus that is further exacerbated by concomitant opioid therapy for post-surgical pain.
• 1. […] Methods • 1. Rats (male, Sprague-Dawley, 250-300 g) are implanted with jugular vein catheters to accommodate dosing of test articles. • 2. Overnight-fasted rats are administered morphine (3 mg/kg s.c.). • 3. […] Radioactivity (^99mTc) in each tissue isolate is measured as a means of measuring the transit of the meal. Results

As to `CN1CC[C@]23c4c5ccc(O)c4O[C@H]2[C@@H](O)C=C[C@H]3[C@H]1C5` [Morphine], the “gastric emptying and intestinal transit” value is “significantly delayed gastric emptying and intestinal transit”.
